Columns and labels:
[1] = biological target: T1, CDK9 (Homo sapiens, UniProt P50750); experiment: CDK protein degradation activity (Western blotting), CDK9; format: cell-based; details: MDA-MB-231 cells, 16 hours, Western blot
T1 construct: endogenous in cells; host or cells: MDA-MB-231
In short: (§1)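 MDA-MB-231; cmpd 100 nM / 1 μM / 10 μM final vs DMSO, 16 h. Triton X-100 lysates (pH 7.5, phosphatase/protease inhibitors) → SDS-PAGE → Western blot, anti-CDK2, anti-CDK9, tubulin loading control; densitometry.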

[2] = biological target: T2, CDK2 (Homo sapiens, UniProt P24941); experiment: CDK protein degradation activity (Western blotting), CDK2; format: cell-based; details: MDA-MB-231 cells, 16 hours, Western blot
T2 construct: endogenous in cells; host or cells: MDA-MB-231
In short: as §1

T1 sequence (P50750 whole entry): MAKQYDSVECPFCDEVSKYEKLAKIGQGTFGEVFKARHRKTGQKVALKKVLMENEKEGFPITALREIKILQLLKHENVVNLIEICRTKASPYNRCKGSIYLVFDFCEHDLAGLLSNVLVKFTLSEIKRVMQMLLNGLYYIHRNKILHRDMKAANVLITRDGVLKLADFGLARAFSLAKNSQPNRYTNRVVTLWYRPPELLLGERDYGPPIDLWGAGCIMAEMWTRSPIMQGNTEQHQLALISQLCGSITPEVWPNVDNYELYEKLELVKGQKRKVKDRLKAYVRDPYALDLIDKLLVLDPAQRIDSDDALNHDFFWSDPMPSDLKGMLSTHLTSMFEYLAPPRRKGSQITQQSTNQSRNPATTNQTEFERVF

Compound | Enzyme degradation CDK9 (% remaining) @ 0.1 μM [1] | Enzyme degradation CDK9 (% remaining) @ 1 μM [1] | Enzyme degradation CDK9 (% remaining) @ 10 μM [1] | Enzyme degradation CDK2 (% remaining) @ 0.1 μM [2] | Enzyme degradation CDK2 (% remaining) @ 1 μM [2] | Enzyme degradation CDK2 (% remaining) @ 10 μM [2]
Cc1cccc(C(=O)NC2CC(n3cnc4c(NCc5cccc(N6CCN(c7cccc8c7C(=O)N([C@H]7CCC(=O)NC7=O)C8=O)CC6)c5)ncnc43)C2)n1 (stereo partly drawn) [Compound 126, N-((1s,3s)-3-(6-((3-(4-(2-(2,6-dioxopiperidin-3-yl)-1,3-dioxoisoindolin-4-yl)piperazin-1-yl)benzyl)amino)-9H-purin-9-yl)cyclobutyl)-6-methylpicolinamide] | 80% | 70% | 70% | 80% | 70% | 70%
Cc1cccc(C(=O)NC2CC(n3cnc4c(NCc5cccc(N6CCN(C(=O)COc7cccc8c7C(=O)N([C@H]7CCC(=O)NC7=O)C8=O)CC6)c5)ncnc43)C2)n1 (stereo partly drawn) [Compound 128, N-((1s,3s)-3-(6-((3-(4-(2-((2-(2,6-dioxopiperidin-3-yl)-1,3-dioxoisoindolin-4-yl)oxy)acetyl)piperazin-1-yl)benzyl)amino)-9H-purin-9-yl)cyclobutyl)-6-methylpicolinamide] | 90% | 60% | 100% | 90% | 50% | 100%
Cc1cccc(C(=O)N[C@H]2C[C@@H](n3cnc4c(NCc5cccc(N6CCN(C(=O)CNc7cccc8c7C(=O)N(C7CCC(=O)NC7=O)C8=O)CC6)c5)ncnc43)C2)n1 (stereo partly drawn) [Compound 130, N-((1s,3s)-3-(6-((3-(4-((2-(2,6-dioxopiperidin-3-yl)-1,3-dioxoisoindolin-4-yl)glycyl)piperazin-1-yl)benzyl)amino)-9H-purin-9-yl)cyclobutyl)-6-methylpicolinamide] | 100% | 40% | 20% | 60% | 40% | 10%
Cc1cccc(C(=O)N[C@H]2C[C@@H](n3cnc4c(NCc5cccc(N6CCN(C(=O)CNc7ccc8c(c7)C(=O)N([C@H]7CCC(=O)NC7=O)C8=O)CC6)c5)ncnc43)C2)n1 [Compound 131, N-((1s,3s)-3-(6-((3-(4-((2-(2,6-dioxopiperidin-3-yl)-1,3-dioxoisoindolin-5-yl)glycyl)piperazin-1-yl)benzyl)amino)-9H-purin-9-yl)cyclobutyl)-6-methylpicolinamide] | 60/60/60% | 60/60/60% | 60/60/60% | 80% | 100% | 100%
Cc1cccc(C(=O)N[C@H]2C[C@@H](n3cnc4c(NCc5cccc(N6CCN(CC7CCN(C(=O)COc8cccc9c8C(=O)N(C8CCC(=O)NC8=O)C9=O)CC7)CC6)c5)ncnc43)C2)n1 (stereo partly drawn) [Compound 132, N-((1s,3s)-3-(6-((3-(4-((1-(2-((2-(2,6-dioxopiperidin-3-yl)-1,3-dioxoisoindolin-4-yl)oxy)acetyl)piperidin-4-yl)methyl)piperazin-1-yl)benzyl)amino)-9H-purin-9-yl)cyclobutyl)-6-methylpicolinamide] | 70% | 10% | 0% | 60% | 40% | 40%

Results, then the compound that gave them:

Enzyme degradation CDK9 (% remaining) @ 0.1 μM [1] | Enzyme degradation CDK9 (% remaining) @ 1 μM [1] | Enzyme degradation CDK9 (% remaining) @ 10 μM [1] | Enzyme degradation CDK2 (% remaining) @ 0.1 μM [2] | Enzyme degradation CDK2 (% remaining) @ 1 μM [2] | Enzyme degradation CDK2 (% remaining) @ 10 μM [2] | Compound
80% | 0% | 0% | 90% | 70% | 80% | Cc1cccc(C(=O)NC2CC(n3cnc4c(NCc5cccc(N6CCN(CC7CCN(C(=O)COc8ccc9c(c8)C(=O)N([C@H]8CCC(=O)NC8=O)C9=O)CC7)CC6)c5)ncnc43)C2)n1 (stereo partly drawn) [Compound 133, N-((1s,3s)-3-(6-((3-(4-((1-(2-((2-(2,6-dioxopiperidin-3-yl)-1,3-dioxoisoindolin-5-yl)oxy)acetyl)piperidin-4-yl)methyl)piperazin-1-yl)benzyl)amino)-9H-purin-9-yl)cyclobutyl)-6-methylpicolinamide]
0/0/0% | 0/0/0% | 0/0/0% | 60% | 50% | 50% | Cc1cccc(C(=O)NC2CC(n3cnc4c(NCc5cccc(N6CCN(CC7CCN(C(=O)CNc8cccc9c8C(=O)N([C@H]8CCC(=O)NC8=O)C9=O)CC7)CC6)c5)ncnc43)C2)n1 (stereo partly drawn) [Compound 134, N-((1s,3s)-3-(6-((3-(4-((1-((2-(2,6-dioxopiperidin-3-yl)-1,3-dioxoisoindolin-4-yl)glycyl)piperidin-4-yl)methyl)piperazin-1-yl)benzyl)amino)-9H-purin-9-yl)cyclobutyl)-6-methylpicolinamide]
0/0/0% | 0/0/0% | 0/0/0% | 70% | 60% | 40% | Cc1cccc(C(=O)NC2CC(n3cnc4c(NCc5cccc(N6CCN(CC7CCN(C(=O)CNc8ccc9c(c8)C(=O)N([C@H]8CCC(=O)NC8=O)C9=O)CC7)CC6)c5)ncnc43)C2)n1 (stereo partly drawn) [Compound 135, N-((1s,3s)-3-(6-((3-(4-((1-((2-(2,6-dioxopiperidin-3-yl)-1,3-dioxoisoindolin-5-yl)glycyl)piperidin-4-yl)methyl)piperazin-1-yl)benzyl)amino)-9H-purin-9-yl)cyclobutyl)-6-methylpicolinamide]
10% | 70% | 40% | 100% | 100% | 60% | Cc1cccc(C(=O)N[C@H]2C[C@@H](n3cnc4c(NCc5cccc(N6CCN(CC7CCN(c8cccc9c8C(=O)N([C@H]8CCC(=O)NC8=O)C9=O)CC7)CC6)c5)ncnc43)C2)n1 [Compound 136, N-((1s,3s)-3-(6-((3-(4-((1-(2-(2,6-dioxopiperidin-3-yl)-1,3-dioxoisoindolin-4-yl)piperidin-4-yl)methyl)piperazin-1-yl)benzyl)amino)-9H-purin-9-yl)cyclobutyl)-6-methylpicolinamide]
0/0/0% | 0/0/0% | 0/0/0% | 30% | 40% | 40% | Cc1cccc(C(=O)N[C@H]2C[C@@H](n3cnc4c(NCc5cccc(N6CCN(CC7CCN(c8ccc9c(c8)C(=O)N([C@H]8CCC(=O)NC8=O)C9=O)CC7)CC6)c5)ncnc43)C2)n1 [Compound 137, N-((1s,3s)-3-(6-((3-(4-((1-(2-(2,6-dioxopiperidin-3-yl)-1,3-dioxoisoindolin-5-yl)piperidin-4-yl)methyl)piperazin-1-yl)benzyl)amino)-9H-purin-9-yl)cyclobutyl)-6-methylpicolinamide]

From patent US20260125382A1, “COMPOUNDS FOR INHIBITING OR DEGRADING CDK2 AND/OR CDK9 AND MEDICINAL USE THEREOF” (KOREA RESEARCH INSTITUTE OF CHEMICAL TECHNOLOGY, priority 2022, published 2026)
